Here are results for 17 compounds from patent publication US11613542B2, “Sulfonylureas and sulfonylthioureas as NLRP3 inhibitors” (Inflazome Limited, priority 2017, dated 2023).

Series [1] addresses T1, NLRP3 (Homo sapiens, UniProt Q96P20). In words: THP-1 cells pyroptosis assay. It is filed as cell-based. Further details: Seed THP-1 cells (25,000 cells/well) containing 1.0 μg/ml LPS; host or cells: THP-1 cells, LPS-primed, nigericin-stimulated. The note with it: THP-1 cells, 1.0 μg/ml LPS, compound 3 hrs, nigericin 5 μM 1 hr, resazurin readout; read-out: THP IC50. A digest of the protocol:
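THP-1 cells (25,000/well) in serum-free RPMI with 1.0 μg/ml LPS, treated with compound (8-point half-log dilution, 10 μM top, 0.1% DMSO), then nigericin 5 μM final. Viability read by resazurin (100 μM final, 1-2 h, 37° C) fluorescence Ex 560/Em 590 nm; IC50 from 4-parameter variable-slope fit.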

Series [2] concerns the target T1, NLRP3. In words: Human whole blood IL1β release assay. The note with it: human whole blood, 1 μg/ml LPS, compound 3 hrs, nigericin 10 μM 1 hr, IL-1β AlphaLisa; read-out: HWB IC50. It is filed as cell-based. More on the design: Human whole blood in Li-heparin tubes was obtained from healthy donors; from tissue; host or cells: human whole blood from healthy donors, LPS-primed, nigericin-stimulated. In a few lines:
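Healthy-donor human whole blood (Li-heparin) primed with 1 μg/ml LPS, with compound (8-point half-log, 10 μM top) or 0.1% DMSO for 3 h at 37 °C, then 10 μM nigericin (final) for 1 h. Supernatant IL-1β read by AlphaLISA; IC50 from 4-parameter variable-slope fit.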

A short description of series [3]: Pharmacokinetic parameters in male Sprague Dawley rats (intravenous and oral administration). The note with it: dose per compound (mg/kg); for bioavailability: plasma, rat, read-out: Bioavailability; for Vd: read-out: Vdss; for Cmax: read-out: Cmax; for Tmax: read-out: Tmax. It is filed as in vivo. On the procedure:
Pharmacokinetic parameters were determined in male Sprague Dawley rats (Charles River, UK, 250-350 g; or Vital River Laboratory Animal Technology Co Ltd, Beijing, China, 7-9 weeks old). Animals were individually housed during the study and maintained under a 12 h light/dark cycle. Animals had free access to food and water except that some orally dosed animals were food deprived overnight prior to the study.
For intravenous administration, compounds were formulated as a solution in water or DMSO:PBS [10:90] in 2 mL/kg dosing volume and administered via tail vein. For oral administration, compounds were formulated as a solution in water or DMSO:water [10:90] in 5 mL/kg dosing volume and administered orally.
Serial blood samples (about 120-300 μL) were taken from each animal at each of 8 time-points post dose (0.083, 0.25, 0.5, 1, 2, 4, 8 and 24 h) or at each of 12 time-points post dose (0.03, 0.1, 0.17, 0.25, 0.5, 1, 2, 4, 6, 8,12 and 24 h) or pre-dose and at each of 9 time-points post dose (0.25, 0.5, 1, 2, 4, 6, 8, 12 and 24 h). Samples were held on ice for no longer than 30 minutes before centrifugation (10,000 rpm (8,385 g) for 3 minutes; or 5,696 rpm (3,000 g) for 15 minutes) for plasma generation. Plasma was frozen on dry ice prior to bioanalysis. PK parameters were generated from LC-MS/MS data using Dotmatics or Phoenix WinNonlin 6.3 software.

Where [4] appears, read: male, Sprague Dawley, oral administration.
The mark [5] stands for this setting: male, Sprague Dawley, intravenous administration, rat plasma.
The mark [6] stands for this setting: male, Sprague Dawley, intravenous administration, rat plasma, read-out: AUC.
Where [7] appears, read: male, Sprague Dawley, oral administration, rat plasma.
The mark [8] stands for this setting: male, Sprague Dawley, oral administration, rat plasma, read-out: AUC.
[9] abbreviates: intravenous administration, rat plasma.

Where a name gives a salt, the structure may show the parent alone. Read-outs that look alike come from different tables or passages of the source.

T1 sequence (Q96P20 whole entry): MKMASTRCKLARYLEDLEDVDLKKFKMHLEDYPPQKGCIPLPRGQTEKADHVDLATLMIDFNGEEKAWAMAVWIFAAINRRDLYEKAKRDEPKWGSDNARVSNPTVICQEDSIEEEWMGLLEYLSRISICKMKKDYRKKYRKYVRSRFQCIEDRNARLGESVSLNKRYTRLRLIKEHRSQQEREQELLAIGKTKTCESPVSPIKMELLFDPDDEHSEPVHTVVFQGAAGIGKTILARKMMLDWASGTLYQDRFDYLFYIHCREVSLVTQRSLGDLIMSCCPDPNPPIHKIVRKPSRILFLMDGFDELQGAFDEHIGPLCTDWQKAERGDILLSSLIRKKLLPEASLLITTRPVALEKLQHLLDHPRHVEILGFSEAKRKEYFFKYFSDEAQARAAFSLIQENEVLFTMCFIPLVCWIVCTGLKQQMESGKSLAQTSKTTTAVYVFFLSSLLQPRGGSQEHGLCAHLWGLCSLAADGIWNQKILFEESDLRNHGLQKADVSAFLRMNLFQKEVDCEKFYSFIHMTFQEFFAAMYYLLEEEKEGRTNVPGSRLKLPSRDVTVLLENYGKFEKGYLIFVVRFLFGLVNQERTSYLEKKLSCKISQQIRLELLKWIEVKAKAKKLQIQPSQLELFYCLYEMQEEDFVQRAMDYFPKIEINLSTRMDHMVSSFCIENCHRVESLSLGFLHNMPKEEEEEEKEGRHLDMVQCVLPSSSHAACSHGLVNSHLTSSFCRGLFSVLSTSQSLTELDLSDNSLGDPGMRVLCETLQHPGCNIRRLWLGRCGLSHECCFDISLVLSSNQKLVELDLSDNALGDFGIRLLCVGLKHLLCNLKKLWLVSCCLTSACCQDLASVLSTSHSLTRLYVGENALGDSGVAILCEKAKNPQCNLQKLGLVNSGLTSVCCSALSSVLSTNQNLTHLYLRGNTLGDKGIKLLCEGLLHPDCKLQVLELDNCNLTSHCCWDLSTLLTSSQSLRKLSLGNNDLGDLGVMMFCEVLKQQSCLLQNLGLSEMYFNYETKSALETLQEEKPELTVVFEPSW

Take `CN(C)CCn1ccc(S(=O)(=O)NC(=O)Nc2c3c(cc4c2CCC4)CCC3)n1` [Example 7, 1-(2-(Dimethylamino)ethyl)-N-((1,2,3,5,6,7-hexahydro-s-indacen-4-yl)carbamoyl)-1H-pyrazole-3-sulfonamide]: the IC50 in series [1] was less than 640 nM. In addition, the IC50 in series [2] is less than 400 nM. Further, in series [3] (setting [4]), the bioavailability turned out to be 52.7%. Moreover, in series [3] (setting [5]), the clearance is 2.6 mL/min/kg, the half-life was 3.7 h and the Vd worked out at 0.38 L/kg. The AUC in series [3] (setting [6]) turned out to be 6420 ng·h/mL. Moreover, in series [3] (setting [7]), the CL/F worked out at 5 mL/min/kg, the half-life is 3 h, the Cmax stood at 3250 ng/mL and the Tmax was 1 h. Also, in series [3] (setting [8]), the AUC is 15200 ng·h/mL.

Turning to `CN(C)CC(C)(C)n1ccc(S(=O)(=O)NC(=O)Nc2c3c(cc4c2CCC4)CCC3)n1` [Example 17, 1-(1-(Dimethylamino)-2-methylpropan-2-yl)-N-((1,2,3,5,6,7-hexahydro-s-indacen-4-yl)carbamoyl)-1H-pyrazole-3-sulfonamide], the IC50 in series [1] was less than 160 nM. The IC50 in series [2] was less than 1600 nM. Further, the bioavailability in series [3] (setting [4]) turned out to be 18.5%. In addition, in series [3] (setting [5]), the clearance came out at 1.1 mL/min/kg, the half-life is 2.5 h and the Vd worked out at 0.18 L/kg. For the same compound, the AUC in series [3] (setting [6]) is 15800 ng·h/mL. Also, in series [3] (setting [7]), the apparent clearance (CL/F) was determined as 6.1 mL/min/kg, the half-life is 2.3 h, the Cmax came out at 2810 ng/mL and the Tmax was 0.67 h. Also, the AUC in series [3] (setting [8]) was 8760 ng·h/mL.

Regarding `CN1CC[C@H]1Cn1ccc(S(=O)(=O)NC(=O)Nc2c3c(cc4c2CCC4)CCC3)n1` [Example 20, (S)—N-((1,2,3,5,6,7-Hexahydro-s-indacen-4-yl)carbamoyl)-1-((1-methylazetidin-2-yl)methyl)-1H-pyrazole-3-sulfonamide], the IC50 in series [1] was less than 160 nM. In addition, the IC50 in series [2] was less than 400 nM. Also, in series [3] (setting [5]), the clearance was determined as 2.4 mL/min/kg, the half-life was 2.9 h and the Vd worked out at 0.32 L/kg. Also, the AUC in series [3] (setting [6]) is 11300 ng·h/mL.

As to `CC(C)n1nc(S(=O)(=O)NC(=O)Nc2c3c(cc4c2CCC4)CCC3)cc1C(=O)N1CCC1` [Example 131, 5-(Azetidine-1-carbonyl)-N-((1,2,3,5,6,7-hexahydro-s-indacen-4-yl)carbamoyl)-1-isopropyl-1H-pyrazole-3-sulfonamide, partial ammonium salt], the IC50 in series [1] is less than 160 nM. In addition, the IC50 in series [2] is less than 1600 nM. Also, in series [3] (setting [9]), the AUC was 302.7 ng·h/mL, the Cl came to 55.3 mL/min/kg, the T1/2 was determined as 1.6 h and the Vdss was 1.66 L/kg.

As for `COc1cc(-c2ccc3c(c2NC(=O)NS(=O)(=O)c2ccn(C(C)(C)C#N)n2)CCO3)ccn1` [Example 190, 1-(2-Cyanopropan-2-yl)-N-((5-(2-methoxypyridin-4-yl)-2,3-dihydrobenzofuran-4-yl)carbamoyl)-1H-pyrazole-3-sulfonamide], the IC50 in series [1] was less than 160 nM; in series [2], less than 400 nM.

Regarding `CNCC(C)(C)n1ccc(S(=O)(=O)NC(=O)Nc2c(-c3ccnc(OC)c3)ccc3c2CCC3)n1` [Example 191, N-((5-(2-Methoxypyridin-4-yl)-2,3-dihydro-1H-inden-4-yl)carbamoyl)-1-(2-methyl-1-(methylamino)propan-2-yl)-1H-pyrazole-3-sulfonamide, sodium salt], the results for the IC50 in series [1] and in series [2] were less than 40 nM and less than 400 nM, respectively.

For `CN(C)CC(C)(C)n1ccc(S(=O)(=O)NC(=O)Nc2c(-c3ccnc(OC4CC4)c3)ccc3c2CCO3)n1` [Example 192, N-((5-(2-Cyclopropoxypyridin-4-yl)-2,3-dihydrobenzofuran-4-yl)carbamoyl)-1-(1-(dimethylamino)-2-methylpropan-2-yl)-1H-pyrazole-3-sulfonamide, sodium salt], the IC50 in series [1] is less than 160 nM; in series [2] it was less than 400 nM.

`COc1cc(-c2ccc3c(c2NC(=O)NS(=O)(=O)c2ccn(C4CCN(C)C4)n2)CCC3)ccn1` (centres unmarked) [Example 193, N-((5-(2-Methoxypyridin-4-yl)-2,3-dihydro-1H-inden-4-yl)carbamoyl)-1-(1-methylpyrrolidin-3-yl)-1H-pyrazole-3-sulfonamide, sodium salt]: the IC50 in series [1] is less than 40 nM; in series [2], less than 400 nM.

Consider `CN(C)CC(C)(C)n1ccc(S(=O)(=O)NC(=O)Nc2c(-c3ccnc(OC4CC4)c3)ccc3c2CCC3)n1` [Example 194, N-((5-(2-Cyclopropoxypyridin-4-yl)-2,3-dihydro-1H-inden-4-yl)carbamoyl)-1-(1-(dimethylamino)-2-methylpropan-2-yl)-1H-pyrazole-3-sulfonamide, sodium salt], for which the IC50 was less than 40 nM in series [1] and less than 400 nM in series [2].

`COc1cc(-c2ccc3c(c2NC(=O)NS(=O)(=O)c2ccn(C(C)(C)C#N)n2)CCC3)ccn1` [Example 195, 1-(2-Cyanopropan-2-yl)-N-((5-(2-methoxypyridin-4-yl)-2,3-dihydro-1H-inden-4-yl)carbamoyl)-1H-pyrazole-3-sulfonamide, sodium salt]: the IC50 was less than 40 nM in series [1] and less than 400 nM in series [2].

Turning to `CN(C)CC(C)(C)n1ccc(S(=O)(=O)NC(=O)Nc2c(-c3ccnc(C#N)c3)ccc3c2CCC3)n1` [Example 196, N-((5-(2-Cyanopyridin-4-yl)-2,3-dihydro-1H-inden-4-yl)carbamoyl)-1-(1-(dimethylamino)-2-methylpropan-2-yl)-1H-pyrazole-3-sulfonamide], the 50% inhibitory concentration (IC50) in series [1] was less than 40 nM; in series [2] it was less than 400 nM.

In the case of `CN(C)CC(C)(C)n1ccc(S(=O)(=O)NC(=O)Nc2c(-c3cccnc3)ccc3c2CCC3)n1` [Example 197, 1-(1-(Dimethylamino)-2-methylpropan-2-yl)-N-((5-(pyridin-3-yl)-2,3-dihydro-1H-inden-4-yl)carbamoyl)-1H-pyrazole-3-sulfonamide], the IC50 in series [1] was less than 640 nM; in series [2], less than 400 nM.

Regarding `C[C@H](CN(C)C)n1ccc(S(=O)(=O)NC(=O)Nc2c3c(cc4c2CCC4)CCC3)n1` [Example 198, (R)-1-(1-(Dimethylamino)propan-2-yl)-N-((1,2,3,5,6,7-hexahydro-s-indacen-4-yl)carbamoyl)-1H-pyrazole-3-sulfonamide], the IC50 was less than 640 nM in series [1] and less than 800 nM in series [2].

As to `CN(C)CCn1ncc(S(=O)(=O)NC(=O)Nc2c3c(cc4c2CCC4)CCC3)n1` [Example 199, 2-(2-(Dimethylamino)ethyl)-N-((1,2,3,5,6,7-hexahydro-s-indacen-4-yl)carbamoyl)-2H-1,2,3-triazole-4-sulfonamide], the IC50 in series [1] was less than 640 nM; in series [2], less than 1600 nM.

In the case of `CN(C)CC1(n2ccc(S(=O)(=O)NC(=O)Nc3c4c(cc5c3CCC5)CCC4)n2)CC1` [Example 202, 1-(1-((Dimethylamino)methyl)cyclopropyl)-N-((1,2,3,5,6,7-hexahydro-s-indacen-4-yl)carbamoyl)-1H-pyrazole-3-sulfonamide], the IC50 was less than 160 nM in series [1] and less than 400 nM in series [2].

As for `CNCC(C)(C)n1ccc(S(=O)(=O)NC(=O)Nc2c3c(cc4c2CCC4)CCC3)n1` [Example 204, N-((1,2,3,5,6,7-Hexahydro-s-indacen-4-yl)carbamoyl)-1-(2-methyl-1-(methylamino)propan-2-yl)-1H-pyrazole-3-sulfonamide, sodium salt], the IC50 in series [1] is less than 160 nM; in series [2], less than 800 nM.

Turning to `CN1CCC(n2ccc(S(=O)(=O)NC(=O)Nc3c4c(cc5c3CCC5)CCC4)n2)C1` (centres unmarked) [Example 205, N-((1,2,3,5,6,7-Hexahydro-s-indacen-4-yl)carbamoyl)-1-(1-methylpyrrolidin-3-yl)-1H-pyrazole-3-sulfonamide, sodium salt], the IC50 was less than 40 nM in series [1] and less than 1600 nM in series [2].
